Structures can show the parent of a compound that is named as a salt.
test system: ANGPTL3; assay: RNA-seq of ANGPTL3 expression in compound-treated primary human hepatocytes; type: cell-based; conditions: additional compounds (Table 13), linear fold change
Method: Human hepatocytes were obtained from two donors from Massachusetts General Hospital, namely MGH54 and MGH63, and one donor from Lonza, namely HUM4111B. Cryopreserved hepatocytes were cultured in plating media for 16 hours, transferred to maintenance media for 4 hours. Cultured on serum-free media for 2 hours, then a compound was added. The hepatocytes were maintained on the serum-free media for 16 hours prior to gene expression analysis. Primary human hepatocytes were stored in the vapor phase of a liquid nitrogen freezer (about −130° C.).
Human hepatocytes cultured as described above were plated in 24-well format, adding 375,000 cells per well in a volume of 500 ul plating medium. Four hours before treatment, cells were washed with PBS and the medium was changed to either: fresh maintenance medium (complete) or modified maintenance medium.
Compound stocks were prepared at 1000× final concentration and added in a 2-step dilution to the medium to reduce risk of a compound precipitating out of solution when added to the cells, and to ensure reasonable pipetting volumes. One at a time, each compound was first diluted 10-fold in warm (about 37° C.) modified maintenance medium (initial dilution=ID), mixed by vortexing, and the ID was diluted 100-fold into the cell culture (e.g. 5.1 ul into 1 well of a 24-well plate containing 0.5 mL medium). The plate was mixed by carefully swirling and after all wells were treated and returned to the incubator overnight. If desired, separate plates/wells were treated with vehicle-only controls and/or positive controls. If using multi-well plates, controls were included on each plate. After about 18 hours, cells were harvested for further analysis, e.g., ChIP-seq, RNA-seq, ATAC-seq, etc.
This protocol is a modified version of the following protocols: MagMAX mirVana Total RNA Isolation Kit User Guide (Applied Biosystems #MAN0011131 Rev B.0), NEBNext Poly(A) mRNA Magnetic Isolation Module (E7490), and NEBNext Ultra Directional RNA Library Prep Kit for Illumina (E7420) (New England Biosystems #E74901).
The MagMAX mirVana kit instructions (the section titled “Isolate RNA from cells” on pages 14-17) were used for isolation of total RNA from cells in culture. Two hundred μl of Lysis Binding Mix was used per well of the multiwell plate containing adherent cells (usually a 24-well plate).
For mRNA isolation and library prep, the NEBNext Poly(A) mRNA Magnetic Isolation Module and Directional Prep kit was used. RNA isolated from cells above was quantified, and prepared in […] of each sample in 50 μl of nuclease-free water. This protocol may be run in microfuge tubes or in a 96-well plate.
All pass filter reads from each sample were mapped against the human genome (assembly GRCh38/GCA_000001405.15 “no alt” analysis set merged with hs38d1/GCA_000786075.2) using two pass mapping via STAR version 2.5.3a (alignment parameters alignIntronMin=20; alignIntronMax=1000000; outFilterMismatchNmax=999; outFilterMismatchNoverLmax=0.05; outFilterType=BySJout; outFilterMultimapNmax=20; alignSJoverhangMin=8; alignSJDBoverhangMin=1; alignMatesGapMax=1000000) (Dobin et al., Bioinformatics (2012) 29(1):15-21). Genomic alignments were converted to transcriptome alignments based on reference transcript annotations from the Human GENCODE Gene Set release 24 (Harrow et al., Genome Res. (2012) 22(9): 1760-1774). Using unique and multimapped transcriptomic alignments, gene-level abundance estimates were computed using RSEM version 1.3.0 (Li and Dewey, BMC Bioinformatics (2011) 12:323) in a strand-aware manner, and including confidence interval sampling calculations, to arrive at posterior mean estimates (PME) of abundances (counts and normalized FPKM—fragments per kilobase of exon per million mapped fragments) from the underlying Bayesian model. Standard QC were applied (read integrity, mapping statistics, library complexity, fragment bias) to remove unsatisfactory samples.

In order of falling “ANGPTL3-LINEAR FOLD CHANGE” value:
1. O=C(O)Cc1cccc(OCCCN(Cc2cccc(C(F)(F)F)c2Cl)CC(c2ccccc2)c2ccccc2)c1 [GW3965]  2.071
2. Cc1c(C(=O)Nc2ccc(N3C[C@@H](C)O[C@@H](C)C3)nc2)cccc1-c1ccc(OC(F)(F)F)cc1 [Sonidegib (Erismodegib, NVP-LDE225), Sonidegib]  0.4897
3. CO[C@H]1C[C@@H]2CC[C@@H](C)[C@@](O)(O2)C(=O)C(=O)N2CCCC[C@H]2C(=O)O[C@H]([C@H](C)C[C@@H]2CC[C@@H](OCCO)[C@H](OC)C2)CC(=O)[C@H](C)/C=C(\C)[C@@H](O)[C@@H](OC)C(=O)[C@H](C)C[C@H](C)/C=C/C=C/C=C/1C [Everolimus (RAD001), Everolimus]  0.483
4. COc1cc(C)c(/C=C/C(C)=C/C=C/C(C)=C/C(=O)O)c(C)c1C [Acitretin]  0.4763
5. Cc1c(OCC(F)(F)F)ccnc1C[S+]([O-])c1nc2ccccc2[nH]1 (stereo not drawn) [Lansoprazole]  0.4763
6. CNc1nc(-c2ccc3c(N)n[nH]c3c2)cc(N2C[C@@H](C(=O)NC3CCCCC3)CC[C@H]2C)n1 [GSK2334470]  0.4538
7. CCc1nc(-c2cccc(C)c2)c(-c2ccnc(NC(=O)c3ccccc3)c2)s1 [TAK-715]  0.4538
8. CCNC(=O)Nc1ccc(-c2nc3c(c(N4CCOC[C@@H]4C)n2)CCN(C2COC2)C3)cc1 [GDC-0349]  0.4506
9. COc1cc(C(=O)NS(=O)(=O)c2ccccc2C)ccc1Cc1cn(C)c2ccc(NC(=O)OC3CCCC3)cc12 [Zafirlukast]  0.4506
10. Cl.Clc1cccc(N2CCNCC2)c1 [1(3-Chlorophenyl)piperazine HCl]  0.4414
11. NC(=O)c1ccc(N(C(N)=O)c2c(F)cccc2F)nc1-c1ccc(F)cc1F [VX-702]  0.4353
12. CCn1c(=O)c(-c2cc[nH]n2)cc2c(C)nc(N)nc21 [Voxtalisib (XL765, SAR245409), Voxtalisib]  0.4175
13. CC(=O)c1ccc2c(c1)N(CCCN1CCC(CCO)CC1)c1ccccc1S2 [Piperacetazine]  0.4033
14. CCC[C@@H]1CC2=CC(=O)CC[C@]2(C)[C@H]2CC[C@@]3(C)[C@@H](CC[C@@]3(O)CCC(=O)[O-])[C@H]12.[K+] [RU 28318]  0.4005
15. COCCOCOc1cc2ccc(-c3ccc(C(=O)O)cc3)cc2cc1C12CC3CC(CC(C3)C1)C2 [CD 2665]  0.395
16. COc1cc(N2CCC(N3CCN(C)CC3)CC2)ccc1Nc1ncnc(Nc2ccccc2S(=O)(=O)C(C)C)n1 [ASP3026]  0.3923
17. CC(C)(Sc1cc(C(C)(C)C)c(O)c(C(C)(C)C)c1)Sc1cc(C(C)(C)C)c(OC(=O)CCC(=O)O)c(C(C)(C)C)c1 [Succinobucol]  0.3896
18. CC(C)(O)CC(=O)NCCn1ccc2ncnc(Nc3ccc(Oc4cccc(C(F)(F)F)c4)c(Cl)c3)c21 [TAK-285]  0.3842
19. C[C@@H](NCCCc1cccc(C(F)(F)F)c1)c1cccc2ccccc12 [Cinacalcet HCl]  0.3789
20. COc1cc(N)c(Cl)cc1C(=O)NC1CCNCC1OC (stereo not drawn) [NORCISAPRIDE HYDROCHLORIDE]  0.3763
21. C[C@@H]1CN(Cc2ccc(F)cc2)[C@@H](C)CN1C(=O)c1cc2c(C(=O)C(=O)N(C)C)cn(C)c2cc1Cl [SCIO-469]  0.3711
22. O=C1CCc2c(Oc3ccc4c(c3)[C@@H]3[C@H](O4)[C@H]3c3nc4ccc(C(F)(F)F)cc4[nH]3)ccnc2N1 [Lifirafenib (BGB-283), Lifirafenib]  0.3585
23. [H]/N=C(\N/C(=N/[H])Nc1ccc(Cl)cc1)NC(C)C [Proguanil]  0.3536
24. O=C(CCCCCCC(=O)Nc1ccccc1)NO [Vorinostat (SAHA, MK0683), Vorinostat]  0.3511
25. COCCn1c2c([n+](Cc3cnccn3)c1C)C(=O)c1ccccc1C2=O [YM155 (Sepantronium Bromide), Sepantronium Bromide]  0.3487
26. FC(F)(F)c1ccc(/C=C/c2nc(COc3ccc(CCCCn4ccnn4)cc3)co2)cc1 [Mubritinib (TAK 165), Mubritinib]  0.3392
27. COc1cc2c(Oc3ccc(NC(=O)C4(C(=O)Nc5ccc(F)cc5)CC4)cc3F)ccnc2cc1OCCCN1CCOCC1 [Foretinib (GSK1363089), Foretinib]  0.3368
28. COCCCC/C(=N\OCCN)c1ccc(C(F)(F)F)cc1 [Fluvoxamine maleate]  0.3231
29. Cc1nc2n(c(=O)c1CCN1CCC(c3noc4cc(F)ccc34)CC1)CCCC2 [Risperidone]  0.3231
30. CC(C)NC(=O)C1CCC(n2c(NC(=O)c3ccc(F)cc3)nc3ccc(CN4CCC(C(C)(C)O)CC4)cc32)CC1 (stereo not drawn) [Belizatinib (TSR-011), Belizatinib]  0.3121
31. C[C@@H](Oc1cc(-n2cnc3ccc(CN4CCN(C)CC4)cc32)sc1C(N)=O)c1ccccc1C(F)(F)F [GSK461364]  0.3078
32. C=CC(=O)Nc1cccc(Oc2nc(Nc3ccc(N4CCN(C)CC4)cc3)nc3ccsc23)c1 [Olmutinib (HM61713, BI 1482694), Olmutinib]  0.3057
33. O=C(O)c1ccc(Nc2ncc3c(n2)-c2ccc(Cl)cc2C(c2c(F)cccc2F)=NC3)cc1 [MLN8054]  0.2755
34. CNC(=O)c1ccc(C)c(-n2c(C)cc(OCc3ccc(F)cc3F)c(Br)c2=O)c1 [PH-797804]  0.2736
35. CC/C(=C(\c1ccccc1)c1ccc(OCCN(C)C)cc1)c1ccccc1 [Tamoxifen]  0.2606
36. CCC(C)(C)C(=O)O[C@H]1C[C@@H](C)C=C2C=C[C@H](C)[C@H](CC[C@@H]3C[C@@H](O)CC(=O)O3)[C@H]21 [Simvastatin]  0.2588
37. Cc1cc(C)c(/C=C2\C(=O)Nc3ccccc32)[nH]1 [Semaxinib, Semaxanib]  0.2449
38. O=C(c1ccc(F)c(F)c1Nc1ccc(I)cc1F)N1CC(O)([C@@H]2CCCCN2)C1 [Cobimetinib (GDC-0973, RG7420), Cobimetinib]  0.2333
39. Nc1ncn([C@@H]2O[C@H](CO)[C@@H](O)[C@H]2O)c(=O)n1 [Azacitidine]  0.2316
40. N#Cc1ccc2[nH]c(O)c(-c3ccc(CN4CCOCC4)cn3)c2c1 [AZD1080]  0.2238
41. CC[C@@H]1C(=O)N(C)c2cnc(Nc3ccc(C(=O)NC4CCN(C)CC4)cc3OC)nc2N1C1CCCC1 [BI 2536]  0.2045
42. NC(=O)N[C@@H](CCC(=O)O)C(=O)O [Carglumic Acid]  0.1975
43. c1ccc2c(CCNc3ccc(Nc4ccncc4)cc3)c[nH]c2c1 [JNJ-26854165 (Serdemetan), Serdemetan]  0.1817
44. CCN1CCN(Cc2ccc(-c3cc4c(N[C@H](C)c5ccccc5)ncnc4[nH]3)cc2)CC1 [AEE788 (NVP-AEE788)]  0.1684
45. NCCC(O)(P(=O)(O)O)P(=O)(O)O [Pamidronate]  0.1528
46. C/C=C1\NC(=O)[C@H]2CSSCC/C=C/[C@H](CC(=O)N[C@H](C(C)C)C(=O)N2)OC(=O)[C@H](C(C)C)NC1=O [Romidepsin (FK228, Depsipeptide), Romidepsin]  0.1349
47. N=C(N)c1ccc(OCCCCCOc2ccc(C(=N)N)cc2)cc1 [Pentamidine isethionate]  0.1321
48. Cc1cnc(Nc2ccc(OCCN3CCCC3)cc2)nc1Nc1cccc(S(=O)(=O)NC(C)(C)C)c1 [Fedratinib (SAR302503, TG101348), Fedratinib]  0.1119

Reference: US20210161997A1, “TREATING DISEASES VIA TARGETED MODULATION OF GENE SIGNALING NETWORKS” (Camp4 Therapeutics Corporation, priority 2018, published 2021)
